Laboratory results taken from patent US9783536B2, “Nitrogen-containing heterocyclic compound or salt thereof” (FUJIFILM Corporation, priority 2013, dated 2017).
Where two headings read alike, the source gives them in different places.

What was measured:
human PI3Kα protein = molecular target: T1, human PI3Kα protein (Homo sapiens, UniProt P42336); assay: PI3Kα enzyme assay (ADP-Glo); format: biochemical; conditions: read-out: PI3Kα enzyme inhibitory activity
T1 construct: purchased Carna Biosciences, Inc; host or cells: baculovirus expression system
T1 sequence (P42336 whole entry): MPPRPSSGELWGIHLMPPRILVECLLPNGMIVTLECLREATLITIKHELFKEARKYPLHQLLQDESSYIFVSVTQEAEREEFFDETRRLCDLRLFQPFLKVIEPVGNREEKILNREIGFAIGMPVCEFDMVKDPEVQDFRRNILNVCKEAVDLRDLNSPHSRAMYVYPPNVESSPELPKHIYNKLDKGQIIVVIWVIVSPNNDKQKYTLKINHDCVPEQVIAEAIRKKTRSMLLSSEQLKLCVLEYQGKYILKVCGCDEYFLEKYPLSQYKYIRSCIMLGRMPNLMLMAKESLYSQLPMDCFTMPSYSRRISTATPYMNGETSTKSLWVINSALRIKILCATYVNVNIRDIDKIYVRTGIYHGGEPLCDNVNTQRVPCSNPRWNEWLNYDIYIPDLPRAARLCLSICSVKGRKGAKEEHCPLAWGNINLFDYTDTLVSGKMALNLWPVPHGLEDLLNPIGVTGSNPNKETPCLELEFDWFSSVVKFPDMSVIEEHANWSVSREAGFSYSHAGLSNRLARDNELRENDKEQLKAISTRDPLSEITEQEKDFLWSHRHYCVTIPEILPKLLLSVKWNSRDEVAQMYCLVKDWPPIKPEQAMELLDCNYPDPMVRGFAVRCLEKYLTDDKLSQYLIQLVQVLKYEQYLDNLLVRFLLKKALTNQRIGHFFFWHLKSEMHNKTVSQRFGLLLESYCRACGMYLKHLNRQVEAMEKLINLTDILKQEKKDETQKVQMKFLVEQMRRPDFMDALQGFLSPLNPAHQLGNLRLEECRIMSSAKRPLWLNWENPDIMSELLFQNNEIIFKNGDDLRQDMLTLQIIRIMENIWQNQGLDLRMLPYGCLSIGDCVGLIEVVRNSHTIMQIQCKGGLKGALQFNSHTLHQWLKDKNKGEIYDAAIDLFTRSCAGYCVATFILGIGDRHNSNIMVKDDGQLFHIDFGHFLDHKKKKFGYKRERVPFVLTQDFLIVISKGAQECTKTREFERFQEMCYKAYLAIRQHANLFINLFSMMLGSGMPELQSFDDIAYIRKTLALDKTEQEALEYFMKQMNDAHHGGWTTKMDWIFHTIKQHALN
T1 sequence (P27986 whole entry partner): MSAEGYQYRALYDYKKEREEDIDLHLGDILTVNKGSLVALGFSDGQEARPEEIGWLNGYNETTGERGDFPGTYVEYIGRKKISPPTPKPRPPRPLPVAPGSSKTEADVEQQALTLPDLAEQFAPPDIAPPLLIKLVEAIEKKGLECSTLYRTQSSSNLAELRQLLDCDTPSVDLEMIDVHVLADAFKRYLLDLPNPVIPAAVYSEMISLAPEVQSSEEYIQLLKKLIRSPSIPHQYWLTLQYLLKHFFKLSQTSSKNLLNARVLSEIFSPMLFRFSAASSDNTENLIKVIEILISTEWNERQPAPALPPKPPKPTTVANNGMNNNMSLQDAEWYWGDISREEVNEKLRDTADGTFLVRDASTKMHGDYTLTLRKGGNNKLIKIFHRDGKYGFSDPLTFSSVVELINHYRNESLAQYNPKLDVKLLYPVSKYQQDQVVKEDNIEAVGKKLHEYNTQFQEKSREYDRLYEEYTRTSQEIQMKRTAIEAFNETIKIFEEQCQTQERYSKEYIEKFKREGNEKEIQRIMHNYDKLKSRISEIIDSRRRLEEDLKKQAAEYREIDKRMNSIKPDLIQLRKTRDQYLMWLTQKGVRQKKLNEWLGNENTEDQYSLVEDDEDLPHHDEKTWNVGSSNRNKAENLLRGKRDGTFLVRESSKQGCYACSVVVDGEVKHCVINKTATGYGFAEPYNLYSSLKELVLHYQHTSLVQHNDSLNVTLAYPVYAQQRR
Summary of the method: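 Biotinylated human PI3Kα (baculovirus-expressed, 4.5 nmol/L) pre-incubated 15 min with compound in Tris-HCl pH 7.5, MgCl2, BSA; reaction 60 min at 25° C with 50 μmol/L PIP2 and 100 μmol/L ATP final. ADP quantified by ADP-Glo luminescence; IC50 calculated.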

[1] = molecular target: T2, GST fusion human ERK2 protein (Homo sapiens, UniProt P28482); assay: ERK2 enzyme assay (2); format: biochemical; conditions: read-out: ERK2 enzyme inhibitory activity (2)
T2 construct: purchased Carna Biosciences, Inc; host or cells: E. coli expression system
T2 sequence (P28482 whole entry, the tested form may be a part): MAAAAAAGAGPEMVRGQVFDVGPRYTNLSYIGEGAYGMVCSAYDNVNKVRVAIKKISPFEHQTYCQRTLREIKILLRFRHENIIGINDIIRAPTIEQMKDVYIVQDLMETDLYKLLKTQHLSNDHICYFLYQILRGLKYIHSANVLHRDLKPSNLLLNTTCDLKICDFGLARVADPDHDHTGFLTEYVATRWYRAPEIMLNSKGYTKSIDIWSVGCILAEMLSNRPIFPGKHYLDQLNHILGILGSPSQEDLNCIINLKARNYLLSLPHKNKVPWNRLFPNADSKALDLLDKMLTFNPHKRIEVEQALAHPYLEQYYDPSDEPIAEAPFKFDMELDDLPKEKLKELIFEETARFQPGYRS
Summary of the method: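 IC50 values come from mobility-shift measurement of phosphorylated versus unphosphorylated 5-FAM peptide substrate after EDTA quench. Beforehand, compound and 1.25 nmol/L E. coli-expressed GST–human ERK2 stood 15 min at room temperature (pH 7.5), then 1 mmol/L ATP and 4.25 μmol/L substrate (final) were added for 120 min at 25 °C.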

Row | SMILES | IC50 (human PI3Kα protein) [nM] | IC50 ([1]; ERK2 enzyme assay (2)) [nM] | IC50 [1] [nM]
1 | CC(C)c1cnnc(Nc2ccc3ncc(-c4cnn(CCN5CC(O)C5)c4)cc3n2)c1 [Example 0612] | < 1000 | < 1000 | 
2 | Cc1n[nH]cc1-c1cnc2ccc(Nc3cc(C(C)C)cnn3)nc2c1 [Example 0719, N-(5-isopropylpyridazin-3-yl)-7-(3-methyl-1H-pyrazol-4-yl)-1,5-naphthyridine-2-amine] | < 1000 | < 1000 | 
3 | CC(C)c1cnnc(Nc2ccc3ncc(-c4cn(C)nc4-c4ccc(N(C)C)nc4)cc3n2)c1 [Example 0793] | < 1000 | 1000 to 10000 | 
4 | CC(C)c1cnnc(Nc2ccc3ncc(-c4cnn(CCCN5CCN(C)CC5=O)c4)cc3n2)c1 [Example 0425] | < 1000 | < 1000 | 
5 | CC(C)Oc1cnnc(Nc2ccc3ncc(-c4cnn(CCCN5CCOCC5)c4)cc3n2)c1 [Example 0501] | 1000 to 10000 | 1000 to 10000 | 
6 | COCC(C)c1cnnc(Nc2ccc3ncc(-c4cnn(C)c4)cc3n2)c1 (stereo not shown) [Example 0788, N-(5-(1-methoxypropan-2-yl)pyridazin-3-yl)-7-(1-methyl-1H-pyrazol-4-yl)-1,5-naphthyridine-2-amine] | < 1000 | < 1000 | 
7 | CC(C)c1cnnc(Nc2ccc3ncc(-c4ccnc(N)n4)cc3n2)c1 [Example 0766] | < 1000 | < 1000 | 
8 | Cc1ccncc1-c1cnc2ccc(Nc3cc(C(C)C)cnn3)nc2c1 [Example 0600] | 1000 to 10000 | < 1000 | 
9 | CC(C)c1cnnc(Nc2ccc3ncc(-c4cnn(CCCN5CCN(C(=O)N(C)C)CC5)c4)cc3n2)c1 [Example 0433] | < 1000 | < 1000 | 
10 | CC(C)c1cnnc(Nc2ccc3ncc(-c4cnn(C)c4)c(Cl)c3n2)c1 [Example 0952, 8-Chloro-N-(5-isopropylpyridazin-3-yl)-7-(1-methyl-1H-pyrazol-4-yl)-1,5-naphthyridine-2-amine] | < 1000 |  | < 1000
11 | CC(C)c1cnnc(Nc2ccc3ncc(-c4cnn(CCCN(C)CC(N)=O)c4)cc3n2)c1 [Example 0671] | < 1000 | < 1000 | 
12 | CC(C)c1cnnc(Nc2ccc3ncc(-c4cn(C)nc4N4CCOCC4)cc3n2)c1 [Example 0844] | < 1000 | < 1000 | 
13 | CC(C)c1cnnc(Nc2ccc3ncc(-c4cnn(CCCN5CCOC(C)(C)C5)c4)cc3n2)c1 [Example 0658] | < 1000 | < 1000 | 
14 | CCOC(CN1CCOCC1)Cn1cc(-c2cnc3ccc(Nc4cc(C(C)C)cnn4)nc3c2)cn1 (stereo not shown) [Example 0811] | < 1000 | < 1000 | 
15 | CC(C)c1cnnc(Nc2ccc3ncc(-c4cnn(C(C)(C)C)c4)cc3n2)c1 [Example 0481] | 1000 to 10000 | < 1000 | 
16 | Cn1cc(-c2cnc3ccc(Nc4cc(N5CCOCC5)cnn4)nc3c2)cn1 [Example 0554, 7-(1-methyl-1H-pyrazol-4-yl)-N-(5-morpholinopyridazin-3-yl)-1,5-naphthyridine-2-amine] | < 1000 | < 1000 | 
17 | CC(C)c1cnnc(Nc2ccc3ncc(N4CC(OCC(F)F)C4)cc3n2)c1 [Example 0868] | 1000 to 10000 | < 1000 | 
18 | CC(C)c1cnnc(Nc2ccc3ncc(-c4cnn(CCN5CCCCC5)c4)cc3n2)c1 [Example 0609, N-(5-isopropylpyridazin-3-yl)-7-(1-(2-(piperidin-1-yl)ethyl)-1H-pyrazol-4-yl)-1,5-naphthyridine-2-amine] | < 1000 | < 1000 | 
19 | CC(C)c1cnnc(Nc2ccc3ncc(N4CCOC[C@H]4C)cc3n2)c1 [Example 0762, (R)-N-(5-isopropylpyridazin-3-yl)-7-(3-methylmorpholino)-1,5-naphthyridine-2-amine] | < 1000 | < 1000 | 
20 | CC(=O)N1CC=C(c2cnc3ccc(Nc4cc(C(C)C)cnn4)nc3c2)CC1 [Example 0882, 1-(4-(6-((5-isopropylpyridazin-3-yl)amino)-1,5-naphthyridin-3-yl)-5,6-dihydropyridine-1(2H)-yl)ethanone] | < 1000 | < 1000 | 
21 | CC(C)c1cnnc(Nc2ccc3ncc(-c4cnn(CCOC5CN(C(=O)OC(C)(C)C)C5)c4)cc3n2)c1 [Example 0739, tert-Butyl 3-(2-(4-(6-((5-isopropylpyridazin-3-yl)amino)-1,5-naphthyridin-3-yl)-1H-pyrazol-1-yl)ethoxy)azetidine-1-carboxylate] | 1000 to 10000 | < 1000 | 
22 | CC(C)c1cnnc(Nc2ccc3ncc(N4CC(OCCF)C4)cc3n2)c1 [Example 0864] | < 1000 | < 1000 | 

Row | SMILES | IC50 (human PI3Kα protein) [nM] | IC50 ([1]; ERK2 enzyme assay (2)) [nM] | IC50 [1] [nM]
23 | CC(C)c1cnnc(Nc2ccc3ncc(-c4cnn(CC(CN5CCOCC5)OCc5ccccc5)c4)cc3n2)c1 (stereo not shown) [Example 0732] | < 1000 | < 1000 | 
24 | Cc1nn(CCCO)cc1-c1cnc2ccc(Nc3cc(C(C)C)cnn3)nc2c1 [Example 0800, 3-(4-(6-((5-Isopropylpyridazin-3-yl)amino)-1,5-naphthyridin-3-yl)-3-methyl-1H-pyrazol-1-yl)propan-1-ol] | < 1000 | < 1000 | 
25 | CC(C)c1cnnc(Nc2ccc3ncc(-c4cnc(OC5CCN(C)CC5)s4)cc3n2)c1 [Example 0507] | < 1000 | < 1000 | 
26 | COCCNc1nn(C)cc1-c1cnc2ccc(Nc3cc(C(C)C)cnn3)nc2c1 [Example 0946] | < 1000 |  | < 1000
27 | CCn1cc(-c2cnc3ccc(Nc4cc(C(C)C)cnn4)nc3c2)cn1 [Example 0440, 7-(1-Ethyl-1H-pyrazol-4-yl)-N-(5-isopropylpyridazin-3-yl)-1,5-naphthyridine-2-amine] | < 1000 | < 1000 | 
28 | CC(C)c1cnnc(Nc2ccc3ncc(-c4cnn(CC(O)CN5CCOCC5)c4)cc3n2)c1 (stereo not shown) [Example 0729] | < 1000 | < 1000 | 
29 | Cc1nn(C)cc1-c1cnc2ccc(Nc3cc(CC(C)C)cnn3)nc2c1 [Example 0790] | < 1000 | < 1000 | 
30 | Cn1cc(-c2cnc3ccc(Nc4cc(C5CCOCC5)cnn4)nc3c2)cn1 [Example 0759] | < 1000 | < 1000 | 
31 | CC(C)c1cnnc(Nc2ccc3ncc(-c4cn(C)nc4Oc4ccccc4)cc3n2)c1 [Example 0820] | < 1000 | < 1000 | 
32 | CC(C)c1cnnc(Nc2ccc3ncc(-c4cnn(CCCN5CC(OCC(F)(F)F)C5)c4)cc3n2)c1 [Example 0699] | < 1000 | < 1000 | 
33 | CC(C)c1cnnc(Nc2ccc3ncc(-c4cnn(CCF)c4)cc3n2)c1 [Example 0466] | < 1000 | < 1000 | 
34 | CCC(CC)c1cnnc(Nc2ccc3ncc(-c4cnn(C)c4)cc3n2)c1 [Example 0585] | < 1000 | < 1000 | 
35 | COC(CN1CC(F)(F)C1)Cn1cc(-c2cnc3ccc(Nc4cc(C(C)C)cnn4)nc3c2)cn1 (stereo not shown) [Example 0814, 7-(1-(3-(3,3-difluoroazetidin-1-yl)-2-methoxypropyl)-1H-pyrazol-4-yl)-N-(5-isopropylpyridazin-3-yl)-1,5-naphthyridine-2-amine] | < 1000 | < 1000 | 
36 | CC(C)c1cnnc(Nc2ccc3ncc(C4=CCN(S(C)(=O)=O)C4)cc3n2)c1 [Example 0908, N-(5-Isopropylpyridazin-3-yl)-7-(1-(methylsulfonyl)-2,5-dihydro-1H-pyrrol-3-yl)-1,5-naphthyridine-2-amine] | < 1000 |  | < 1000
37 | Cc1cnnc(Nc2ccc3ncc(-c4cn(C)nc4-c4cccnc4)cc3n2)c1 [Example 0527] | < 1000 | 1000 to 10000 | 
38 | Cc1cncc(-c2nn(C)cc2-c2cnc3ccc(Nc4cc(C(C)C)cnn4)nc3c2)c1 [Example 0555] | < 1000 | < 1000 | 
39 | CC(C)c1cnnc(Nc2ccc3ncc(-c4cn(C)nc4-c4ccc(CN(C)C)cc4)cc3n2)c1 [Example 0768] | < 1000 | 1000 to 10000 | 
40 | COC(CN1CC(OC(F)F)C1)Cn1cc(-c2cnc3ccc(Nc4cc(C(C)C)cnn4)nc3c2)cn1 (stereo not shown) [Example 0813, 7-(1-(3-(3-(Difluoromethoxy)azetidin-1-yl)-2-methoxypropyl)-1H-pyrazol-4-yl)-N-(5-isopropylpyridazin-3-yl)-1,5-naphthyridine-2-amine] | < 1000 | < 1000 | 
41 | CC(C)c1cnnc(Nc2ccc3ncc(-c4cnn(CCCN5CC(C(N)=O)C5)c4)cc3n2)c1 [Example 0670] | < 1000 | < 1000 | 
42 | CC(C)c1cnnc(Nc2ccc3ncc(-c4cn(C)nc4COC4CNC4)cc3n2)c1 [Example 0822, 7-(3-((Azetidin-3-yloxy)methyl)-1-methyl-1H-pyrazol-4-yl)-N-(5-isopropylpyridazin-3-yl)-1,5-naphthyridine-2-amine] | < 1000 | < 1000 | 
43 | CC(C)c1cnnc(Nc2ccc3ncc(N4CC(OCC5CC5)C4)cc3n2)c1 [Example 0869] | 1000 to 10000 | < 1000 | 
44 | CC(C)c1cnnc(Nc2ccc3ncccc3n2)c1 [Example 0876] | 1000 to 10000 | 1000 to 10000 | 
